Results published in patent US4885239A, “Rapid differentiation of bacteria using polyether antibiotics” (Eastman Kodak Company, priority 1986, dated 1989).

Tests used:
[1] = E1/2 (reduction potential) of the quinone nucleus of RIND compounds; assay type: physicochemical; details: quinone nucleus with hydrogen in place of the side chain
Description: Examples of such nuclei are presented below. […] Preferably, the E1/2 is from about +100 mV to about +400 mV as measured in water, or from about -650 to about -300 mV as measured in acetonitrile. […] Further details of measuring the E1/2 are described below prior to Table I. The desired E1/2 is achieved by appropriate electron withdrawing groups on the CAR--nucleus, or by a strained fused ring attached to the nucleus or a combination of both.
A standard calomel electrode was used as a standard. Some E1/2 values (denoted by *) were measured in acetonitrile using a saturated calomel electrode as a standard. E1/2 values not available are denoted by "NA".

[2] = system: viable gram-positive and gram-negative bacteria; assay: differentiation of viable gram-positive and gram-negative bacteria (outcome in words); assay type: cell-based; details: for differentiation of gram-positive and gram-negative bacteria: RIND XXXV, Examples 8 and 9; for differentiating gram-positive and gram-negative bacteria: RIND VII, Examples 2-3
Protocol: (§1) gram-negative bacteria Enterobacter cloacae (ATCC 23355), Escherichia coli (ATCC 25922), Proteus vulgaris (ATCC 13315), Klebsiella pneumoniae (ATCC 13883) and Pseudomonas aeruginosa (ATCC 27853), and gram-positive bacteria Staphylococcus aureus (ATCC 25923) and Streptococcus pyogenes (ATCC 19615), and brain heart infusion (BHI) broth from Difco Laboratories (Detroit, Mich.),
(§2) Bacterial suspensions were prepared by growing the cells in BHI to stationary phase overnight at 37° C. P. aeruginosa was grown with agitation. About 40 ml of overnight cultures were centrifuged, decanted and washed once with 0.05 molar potassium phosphate buffer or 0.05 molar N-2-hydroxyethylpiperazine-N'-2-ethanesulfonic acid (HEPES) buffer, pH 7.8, and resuspended in buffer.
TERGITOL 7 anionic surfactant was used to differentiate viable bacteria according to the prior art method. Various concentrations of TERGITOL 7 surfactant were mixed with a 10% glucose solution (50 μl), 3-(4,5-dimethyl-2-thiazolyl)-2,5-diphenyl-2N-tetrazolium bromide (MTT) in methanol (25 μl at 5 mg/ml) or a RIND VII dispersion (1.5 ml) and phenazine methosulfate ETA (25 μl at 3 mg/ml methanol). The volume of each test solution was brought to 3 ml with potassium phosphate buffer. A cell suspension (100 μl at about 10^8 cells/ml) was then added. The solutions were incubated at 37° C. for 15 and 30 minutes in the presence of either E. coli, a gram (-) bacterium, or S. aureus, a gram (+) bacterium. The amount of dye formed was then determined visually and graded as follows: 0 indicates no dye formation, +/- indicates faint dye formation, 1+ indicates light dye formation, 2+ indicates moderate dye formation, 3+ indicates strong dye formation, and 4+ indicates very strong dye formation.
Calimycin, a polyether antibiotic, was similarly used with RIND VII in the differentiation of bacteria. Assays were performed as described above, except that 25 μl of 1 molar calcium chloride solution was added to each test solution and the P. aeruginosa response was measured in the presence of 10% yeast extract as the carbon source instead of glucose. The final concentration of calimycin in each test was 10^-3 molar.
(§3) The test solutions were prepared by adding the following, in order: 1.2 ml HEPES, 50 μl glucose solution, 1.5 ml RIND VII dispersion, 100 μl antibiotic solution, 100 μl cell suspension and 25 μl ETA solution. Cell control solutions contained all reagents except antibiotics. Background Controls consisted of both buffer and solution controls. The buffer control contained all reagents except antibiotics and cells. The solution control contained all reagents except cells.
(§4) Optical density readings (OD) were made at 635 nm at 0 minutes and after incubation at 37° C. for 30 minutes for all solutions, and the change (ΔOD) was determined. Table V below lists the results expressed as corrected percent inhibition of the reduction of RIND VII. The corrected percent inhibition was calculated by dividing the difference between ΔOD obtained from a Control test without antibiotic and the ΔOD of the test, by the ΔOD of the Control without antibiotic. All readings were corrected by subtracting readings of the appropriate background control.
Relative fluorescence was measured using a standard spectrophotometer modified to read at excitation of 540 nm and emission of 620 nm. The change (Δ) in relative fluorescence was determined after 30 minutes at 37° C. for several concentration levels of antibiotic.
Optical density measurements were obtained at 540 nm using a standard spectrophotometer and the change in optical density (ΔOD) was determined after 30 minutes at 37° C. The resulting data are shown in Table VII below for several concentrations of antibiotic. It is clear from the data that the composition of this example was useful for differentiating bacteria. […]

E. coli (gram -) [3] = assay: inhibition of the reduction of RIND XXXV (Examples 8 and 9), E. coli; assay type: cell-based, Escherichia coli (ATCC 25922); details: 50 μl of 10 mg/ml antibiotic premixed with 1 ml cells (septamycin with calcium chloride), 30 minutes, 37° C., average of two replicates
Protocol: as §1
(§5) Bacterial suspensions were prepared by growing the cells in BHI to stationary phase overnight at 37° C. P. aeruginosa was grown with agitation. […]
(§6) Optical density readings (OD) were made at 635 nm at 0 minutes and after incubation at 37° C. for 30 minutes for all solutions, and the change (ΔOD) was determined. Table V below lists the results expressed as corrected percent inhibition of the reduction of RIND VII. The corrected percent inhibition was calculated by dividing the difference between ΔOD obtained from a Control test without antibiotic and the ΔOD of the test, by the ΔOD of the Control without antibiotic. All readings were corrected by subtracting readings of the appropriate background control. […]
(§7) Relative fluorescence was measured at an emission of 620 nm after excitation at 540 nm using a […] microfluor Reader, and the change in fluorescence (Δ relative fluorescence) after 30 minutes at 37° C. was determined as the average of two replicates.

S. aureus (gram +) [4] = assay: inhibition of the reduction of RIND XXXV (Examples 8 and 9), S. aureus; assay type: cell-based, Staphylococcus aureus (ATCC 25923); details: 50 μl of 10 mg/ml antibiotic premixed with 1 ml cells (septamycin with calcium chloride), 30 minutes, 37° C., average of two replicates
Protocol: as §1, §5, §6, §7

E. coli (gram -) [5] = assay: inhibition of the reduction of RIND VII (solution assay, Examples 2-3), E. coli; assay type: cell-based, Escherichia coli (ATCC 25922); details: 635 nm, 30 minutes, 37° C.
Protocol: as §1, §2
(§8) A dispersion containing a RIND compound was prepared by dissolving RIND VII from Table II above in N,N-dimethylformamide (DMF) at 16 mg compound per ml of solvent. An aliquot (250 μl) of the resulting solution was added to 500 μl of TRITON X-100 surfactant. This mixture was then added dropwise with stirring to 25 ml of 0.05 molar HEPES buffer. A solution containing a water-compatible RIND compound XXXV was prepared by dissolving the compound (16 mg/ml) in N,N-dimethylformamide which had been acidified with a 0.1% sulfuric acid solution.
(§9) The following materials were used in these examples: stock dispersion of RIND VII as described above, glucose (10% in water), trimethyl-1,4-benzoquinone ETA (1.5 mg/ml methanol), each antibiotic at 1, 5, and 10 mg/ml methanol. Microbial cells were grown as described above. The final approximate cell concentrations were: 1.4×10^7 cells/ml for E. coli and 2.4×10^7 cells/ml for S. aureus.
as §3, §4

S. aureus (gram +) [6] = assay: inhibition of the reduction of RIND VII (solution assay, Examples 2-3), S. aureus; assay type: cell-based, Staphylococcus aureus (ATCC 25923); details: 635 nm, 30 minutes, 37° C.
Protocol: as §1, §2, §8, §9, §3, §4

[7] = (*) in acetonitrile, saturated calomel electrode
[8] = aqueous emulsion, DMF, TRITON X-100, sodium phosphate buffer pH 7, calomel electrode

Structure (SMILES): CCCCCCCCCCNS(=O)(=O)c1ccc(C(C)C2=C(CN(C)C(=O)Oc3ccc(N=Nc4cccc(S(N)(=O)=O)c4)c4c(NS(C)(=O)=O)cccc34)C(=O)C(C(C)c3ccc(S(=O)(=O)NCCCCCCCCCC)cc3)=C(CN(C)C(=O)Oc3ccc(N=Nc4cccc(S(N)(=O)=O)c4)c4c(NS(C)(=O)=O)cccc34)C2=O)cc1 (stereo not drawn) [RIND XXI]
- E1/2 [1, 7]: -528 mV

Structure (SMILES): CN(CC1=C(c2ccc(C#N)cc2)C(=O)C2=C(C1=O)C1C=CC2CC1)C(=O)Oc1ccc(N=Nc2ccc([N+](=O)[O-])cc2S(C)(=O)=O)c2c(NS(=O)(=O)c3cccc(S(N)(=O)=O)c3)cccc12 (stereo not drawn) [RIND XVII]
- E1/2 [1, 8]: +240 mV

Structure (SMILES): CO[C@H]1C[C@@H](C[C@H]2O[C@@](O)([C@H](C)C(=O)O)[C@H](C)[C@H](OC)[C@@]2(C)O[C@H]2CC[C@@H](OC)[C@H](C)O2)O[C@]2(O[C@@](C)([C@@H]3CC[C@H]([C@H]4CC[C@H]([C@H]5O[C@](C)(O)[C@H](C)C[C@@H]5C)O4)O3)[C@H](OC)[C@H]2C)[C@@H]1C [Septamycin, septamycin]
- differentiation of gram-positive and gram-negative bacteria [2]: useful for differentiation of gram-positive and gram-negative bacteria
- Corrected Percent Inhibition (E. coli (gram -) [3]): 52.3%
- Corrected Percent Inhibition (S. aureus (gram +) [4]): 74.9%

Structure (SMILES): CC(C1=C(CN(C)C(=O)Oc2ccc(N=Nc3ccc([N+](=O)[O-])cc3S(C)(=O)=O)c3c(NS(=O)(=O)c4cccc(S(N)(=O)=O)c4)cccc23)C(=O)C(C(C)c2ccc([N+](=O)[O-])cc2)=C(CN(C)C(=O)Oc2ccc(N=Nc3ccc([N+](=O)[O-])cc3S(C)(=O)=O)c3c(NS(=O)(=O)c4cccc(S(N)(=O)=O)c4)cccc23)C1=O)c1ccc([N+](=O)[O-])cc1 (stereo not drawn) [RIND II]
- E1/2 [1, 8]: +236 mV

Structure (SMILES): CCCCCCCCCCNS(=O)(=O)c1ccc(C(C)C2=C(CN(C)C(=O)Oc3ccc4c(C)cc(=O)oc4c3)C(=O)C(C(C)c3ccc(S(=O)(=O)NCCCCCCCCCC)cc3)=C(CN(C)C(=O)Oc3ccc4c(C)cc(=O)oc4c3)C2=O)cc1 (stereo not drawn) [RIND XXII]
- E1/2 [1, 7]: -528 mV

Structure (SMILES): CC1=C(C)C(=O)C(c2ccccc2)=C(CN(C)C(=O)Oc2ccc(N=Nc3ccc([N+](=O)[O-])cc3S(C)(=O)=O)c3c(NS(=O)(=O)c4cccc(S(N)(=O)=O)c4)cccc23)C1=O [RIND XXXVI]
- E1/2 [1, 8]: +144 mV

Structure (SMILES): CN(CC1=C(c2ccccc2)C(=O)C(CN(C)C(=O)Oc2ccc(N=Nc3ccc([N+](=O)[O-])cc3S(C)(=O)=O)c3c(NS(=O)(=O)c4cccc(S(N)(=O)=O)c4)cccc23)=C(c2ccccc2)C1=O)C(=O)Oc1ccc(N=Nc2ccc([N+](=O)[O-])cc2S(C)(=O)=O)c2c(NS(=O)(=O)c3cccc(S(N)(=O)=O)c3)cccc12 [RIND IV]
- E1/2 [1, 7]: -460 mV

Structure (SMILES): CCCCCCCCCCNS(=O)(=O)c1ccc(C(C)C2=C(CN(C)C(=O)Oc3ccc(N=Nc4ccc([N+](=O)[O-])cc4S(C)(=O)=O)c4c(NS(=O)(=O)c5cccc(S(N)(=O)=O)c5)cccc34)C(=O)C(C(C)c3ccc(S(=O)(=O)NCCCCCCCCCC)cc3)=C(CN(C)C(=O)Oc3ccc(N=Nc4ccc([N+](=O)[O-])cc4S(C)(=O)=O)c4c(NS(=O)(=O)c5cccc(S(N)(=O)=O)c5)cccc34)C2=O)cc1 (stereo not drawn) [RIND I]
- E1/2 [1, 7]: -528 mV

Structure (SMILES): CC[C@@]1([C@@H]2O[C@@H]([C@H]3O[C@@](O)(CO)[C@H](C)C[C@@H]3C)C[C@@H]2C)CC[C@H]([C@]2(C)CC[C@]3(C[C@H](O)[C@@H](C)[C@@H]([C@@H](C)[C@@H](OC)[C@H](C)C(=O)O)O3)O2)O1 [Monensin, monensin A]
- differentiating gram-positive and gram-negative bacteria [2]: effective in differentiating gram-positive and gram-negative bacteria
- Corrected Percent Inhibition (E. coli (gram -) [5]; antibiotic 0.033 mg/ml): 5.1%
- Corrected Percent Inhibition (E. coli (gram -) [5]; antibiotic 0.166 mg/ml): No inhibition
- Corrected Percent Inhibition (E. coli (gram -) [5]; antibiotic 0.333 mg/ml): No inhibition
- Corrected Percent Inhibition (S. aureus (gram +) [6]; antibiotic 0.033 mg/ml): 34.4%
- Corrected Percent Inhibition (S. aureus (gram +) [6]; antibiotic 0.166 mg/ml): 43.0%
- Corrected Percent Inhibition (S. aureus (gram +) [6]; antibiotic 0.333 mg/ml): 42.0%

Structure (SMILES): COC1CCC(OC2C(C)C(O)(C(C)C(=O)O)OC(CC3CC(OC)C(C)C4(O3)OC(C)(C3CCC(C5CCC(C6OC(C)(O)C(C)C(OC)C6C)O5)O3)C(OC)C4C)C2(C)OC)OC1C (stereo not drawn) [Antibiotic A204]
- differentiation of gram-positive and gram-negative bacteria [2]: useful for differentiation of gram-positive and gram-negative bacteria
- Corrected Percent Inhibition (E. coli (gram -) [3]): 3.6%
- Corrected Percent Inhibition (S. aureus (gram +) [4]): 35.8%

Structure (SMILES): CC[C@@H](C(=O)[C@@H](C)[C@@H](O)[C@H](C)CCc1ccc(C)c(O)c1C(=O)O)[C@H]1O[C@](CC)([C@H]2CC[C@](O)(CC)[C@H](C)O2)C[C@@H]1C [Lasalocid, lasalocid]
- differentiating gram-positive and gram-negative bacteria [2]: effective in differentiating gram-positive and gram-negative bacteria
- Corrected Percent Inhibition (E. coli (gram -) [5]; antibiotic 0.033 mg/ml): 6.6%
- Corrected Percent Inhibition (E. coli (gram -) [5]; antibiotic 0.166 mg/ml): 10.5%
- Corrected Percent Inhibition (E. coli (gram -) [5]; antibiotic 0.333 mg/ml): 25.5%
- Corrected Percent Inhibition (S. aureus (gram +) [6]; antibiotic 0.033 mg/ml): 35.2%
- Corrected Percent Inhibition (S. aureus (gram +) [6]; antibiotic 0.166 mg/ml): 50.9%
- Corrected Percent Inhibition (S. aureus (gram +) [6]; antibiotic 0.333 mg/ml): 60.1%
